Data set [1] deals with angiopoietin expression in ES2 cells. The data set is described as follows: Microarray gene expression, Table 12. It is filed as cell-based, human. The settings on record: for ANGPT1 angiopoietin 1, gene expression ratio to no drug control (D): probe 205609_at; for ANGPTL4 angiopoietin-like 4, gene expression ratio to no drug control (D): probe 221009_s_at; for ANGPTL1 Angiopoietin-like 1, gene expression ratio to no drug control (D): probe 227533_at. The method, then:
Y/D is the ratio (in folds) of gene expression in cells treated with compound Y as compared with those of the no drug control (D),
YM/D is the ratio of gene expression in cells treated with compound YM (ACH-Y, Y without sugar moiety) compared with those of the no drug control (D)
Cell culture and drug-treatment.: ES2 cells were seeded in a T-25 flask with 4.5 million cells per flask for 24 hours. Cell culture was replaced with fresh medium with xanifolia-Y (Y) or DMSO no drug control (D) for 24 hours. Cells were then harvested for RNA isolation. Three experiments were done.
RNA extraction, labeling, hybridization, and data analysis. RNA was extracted from tumor cells using the Qiagen RNeasy Kit. RNA quality and quantity was checked by the Agilent BioAnalyzer and the NanoDrop® ND-1000 spectrophotometer respectively before further manipulation. The first and second cDNA strands were synthesized from 20 ng of total RNA using the Affymetrix T7 oligo(dT) primer protocol and kit for the two-cycle amplification. To produce amplified biotin-labeled-cRNA, the cDNA was […] by in vitro transcription using the MegaScript kit from Ambion. 15.0 μg of the labeled cRNA was fragmented and re-checked for concentration using the NanoDrop® ND-1000 spectrophotometer. A hybridization cocktail containing Affymetrix spike-in controls and fragmented labeled cRNA was loaded onto the Human U133 Plus 2.0 GeneChip® oligonucleotide array. The Affymetrix array (Affymetrix, Inc. Santa Clara, Calif.) is comprised of over 1,300,000 unique oligonucleotide features that represent greater than 38,500 well-substantiated human genes. The array was hybridized for 16 hours at 45° C. with rotation at 60 rpm then washed and stained with a strepavidin, R-phycoerythrin conjugate stain on the Affymetrix Fluidicis Station 450. Signal amplification was done using biotinylated antistreptavidin. The arrays were scanned using the GeneChip® 3000 confocal laser scanner with autoloader. The images were analyzed and quality control metrics recorded using Affymetrix GCOS software version 1.4. Lastly, the expression value for each gene was calculated using dChip PM-only model based or Plier algorithm.
Pairwise comparisons were made as follows: Treated vs. Control (Y vs. D), Modified Drug vs Control (YM/ACY-H vs. D) and Treated vs. Modified Drug (Y vs. YM/ACH-Y) Cel files analyzed using the Bioconductor package of R Statistical programming. Limma analysis generated a reasonable number of changing genes between the samples.
The raw data in the .CEL files were normalized by the GCRMA method (robust multi-array analysis). It is implemented in Bioconductor (http://www.bioconductor.org/). The raw signal intensity data were normalized, background corrected and summarized based on certain statistical models, and an expression value, in log 2-scale, is obtained per chip per probe set. Then the null hypothesis was tested that there's no significant changes in gene expression between the treatment pairs. This was done by LIMMA and is also implemented in Bioconductor. It uses empirical Bayes method to estimate the variance in gene expression. One comparison was made, namely, High Grade vs. Low Grade. The raw p-values were adjusted by the Benjamnin-Hochberg method for false discovery rate (FDR) control. All data sets contained a significant number of genes with a p-value less than 0.05, which is that the probability that a gene is NOT differential expressed (false positive) is 1:20.

The subject of data set [2] is Fibronectin secretion from skin SK-Mel-5 cells. The data set is described as follows: Fibronectin secretion (Western blot), SK-MEL-5 cells. It is filed as cell-based, human. The settings on record: Homo sapiens.
The subject of data set [3] is K562 cells membrane. Kind of data set: EM study of membrane structure. It is filed as cell-based, human. The settings on record: 5 uM, 60 min. The source says: Xanifolia-Y has a potent hemolytic activity in red blood cells (FIG. 27). To study the effect of Xanifolia-Y on membrane structure, the morphology of cell membrane treated with Xanifolia-Y was examined with EM. […] Solvent DMSO and AKOH-Y (a derivative of Xanifolia-Y without the angeloyl group and it has no activity) served as controls. Cells were negative stained with 1% UAc and subsequently examined with EM.

Data set [4] relates to ES2 (human ovarian cancer) cells transplanted intra-peritoneally. The data set is described as follows: Animal study, survival of mice with intra-peritoneal ES2 tumor. It is filed as in vivo, Athymic Nu/Nu mice. The settings on record: for survival of tumor bearing mice: 2.5 mg/kg; for median survival time: i.p. 2.5 mg/kg. The protocol:
Methods • Athymic Nu/Nu mice are divided into three groups (A, B and C) with four animals in each group. • On day 0, mice of group A and B were transplanted intra-peritoneally with ES2 (human ovarian cancer) cells. • On day 1, mice from B and C groups received drug (Xanifolia-Y, by i.p. route at dose of 5 mg/kg) • On days 2 to 4, and 7 to 11, B and C groups animals received daily drug administration of Xanifolia-Y, by i.p. route at dose of 2.5 mg/kg. • Group A mice have no drug-treatment.
Methods • Athymic Nu/Nu mice were divided into three groups (A, D and E) with four animals in each group. • On day 0, all mice were transplanted intra-peritoneally with ES2 (human ovarian cancer) cells. • Group A mice received no drug-treatment. • Group D: From day 4, mice received a daily drug administration of Xanifolia-Y, via i.p. route for 9 days at dose of 2.5 mg/kg. • Group E: From day 10, mice received daily drug administration of Xanifolia-Y, via i.p. route for 10 days at dose of 2.5 mg/kg. […]

Data set [5] deals with ES2 (human ovarian cancer) cells transplanted sc. The data set is described as follows: Animal study, size of sc ES2 tumor. It is filed as in vivo, Athymic Nu/Nu mice. The protocol: • Athymic Nu/Nu mice (2-3 months old) were transplanted sc with ES2 (human ovarian cancer) cells. • Five days after the transplant (day one), mice were divided into two groups (H and J) with two animals in each group. • Group H: On days 1-5, and 8-10 mice received daily drug administration of Xanifolia-Y, by i.p. route at dose of 2.5 mg/kg. • Group J mice received no drug-treatment.

Where [6] appears, read: drug-treatment started on day 10 after tumor inoculation.
Setting [7] is: drug-treatment starting on day 4 after tumor inoculation.

These results are taken from patent publication US10213451B2, “Methods and compounds for modulating the secretion or expression of adhesion proteins or angiopoietins of cells” (PACIFIC ARROW LIMITED, priority 2004, dated 2019).

Entries after “also recorded” stand apart in the source; their conditions may differ.

In the case of `C/C=C(/C)C(=O)O[C@H]1[C@H](OC(=O)/C(C)=C\C)[C@@]2(CO)C(CC1(C)C)C1=CCC3[C@@]4(C)CC[C@H](O)C(C)(C)C4CC[C@@]3(C)[C@]1(C)[C@@H](O)[C@H]2O` (some centres unmarked) [ACH-Y], the “ANGPT2 angiopoietin 2, gene expression ratio to no drug control (D)” value in data set [1] (probe 205572_at) is on record as 1.4 folds. Moreover, in data set [1], the “ANGPT1 angiopoietin 1, gene expression ratio to no drug control (D)” value was −1.2 folds; the “ANGPTL4 angiopoietin-like 4, gene expression ratio to no drug control (D)” value was −1.4 folds; the “ANGPTL1 Angiopoietin-like 1, gene expression ratio to no drug control (D)” value is on record as −2.3 folds. Moreover, in data set [1] (probe 211148_s_at), the “ANGPT2 angiopoietin 2, gene expression ratio to no drug control (D)” value was 1.4 folds. The inhibition (usually the share of the control response that was lost under treatment) at 30 µg/mL in data set [2] (30 ug/ml) stood at 21%.

For `C/C=C(/C)C(=O)O[C@H]1[C@H](OC(=O)/C(C)=C\C)[C@@]2(CO)C(CC1(C)C)C1=CCC3[C@@]4(C)CC[C@H](O[C@@H]5OC(C(=O)O)[C@@H](O)C(O[C@@H]6O[C@@H](CO)C(O)C6O)C5O[C@@H]5OC(CO)[C@H](O)C(O)C5O)C(C)(C)C4CC[C@@]3(C)[C@]1(C)[C@@H](O)[C@H]2O` (stereo partly drawn) [Xanifolia-Y, 3-O-[β-D-galactopyranosyl (1→2)]-α-L-arabinofuranosy (1→3)-β-D-glucuronopyranosyl-21,22-O-diangeloyl-3β, 15α, 16α, 21β, 22α, 28-hexahydroxyolean-12-ene], the “ANGPT2 angiopoietin 2, gene expression ratio to no drug control (D)” value in data set [1] (probe 205572_at) is recorded as 3.5 folds; in data set [1] (probe 211148_s_at), 2.5 folds. Moreover, the “ANGPT1 angiopoietin 1, gene expression ratio to no drug control (D)” value in data set [1] is −1.1 folds. Also, the “ANGPTL4 angiopoietin-like 4, gene expression ratio to no drug control (D)” value in data set [1] was −1.2 folds. In addition, the “ANGPTL1 Angiopoietin-like 1, gene expression ratio to no drug control (D)” value in data set [1] is on record as −1.5 folds. For the same compound, the “membrane morphology (EM)” value in data set [3] is “patches of pits were found in the membrane”. For the same compound, the inhibition at 10 µg/mL in data set [2] (10 ug/ml) turned out to be 11%. The inhibition at 20 µg/mL in data set [2] (20 ug/ml) fell in the range of 40 to 57%. In data set [4] (Group C: no tumor, i.p. 5 mg/kg day 1, 2.5 mg/kg days 2-4 and 7-11), the “survival of mice without tumor given drug” value is recorded as “over 50 days”. The “survival of tumor bearing mice” value in data set [4] (Group D: i.p. 2.5 mg/kg daily, 9 times from day 4) is listed as “all survived; also recorded: no death in 50 days”; in data set [4] (Group E: i.p. 2.5 mg/kg daily, 10 times from day 10), “half the number of mice survived; also recorded: half of the mice survive in 50 days”. Besides, the “extension of life span” value in data set [4] (setting [6]) was 29%; in data set [4] (setting [7]), 141%. The median survival time in data set [4] (setting [6]) is given as 31 days; in data set [4] (setting [7]), 58 days. For the same compound, the “tumor size smaller than in mice with no drug” value in data set [5] (10 days period) was determined as 45%. In data set [5] (Group H: i.p. 2.5 mg/kg days 1-5 and 8-10, in 10 days), this compound yielded a tumor size of 10 mm.
